Source: US8580786B2, “Triazine derivatives and their therapeutical applications” (Nant Holdings IP, LLC, priority 2006, dated 2013)

System: MX-1 (human breast carcinoma) cells
Assay: Cytotoxicity assay (Promega CellTiter Blue Cell Viability Assay), in vitro growth inhibition
Type: cell-based
Settings: MX1, MX-1 cells, 72 hrs exposure to compound, CellTiter Blue fluorescence readout, read-out: IC50 (μM), cytotoxicity of triazine derivatives
Protocol: A cytotoxicity assay was quantitated using the Promega CellTiter Blue Cell Viability Assay. Briefly, cells (5000 cells/well) were plated onto 96-well microtiter plates in RPMI 1640 medium supplemented with 10% FBS and incubated at 37° C. in a humidified 5% CO2 atmosphere. After 24 hrs., cells were exposed to various concentrations of compound in DMSO and cultured for another 72 hrs. 100 ul of media were removed and 20 ul of Promega CellTiter Blue reagent were added to each well and shaken to mix. After 4 hours of incubation at 37° C. in a humidified 5% CO2 atmosphere, the plates were read at 544 ex/620 em. The fluorescence produced is proportional to the number of viable cells. After plotting fluorescence produced against drug concentration, the IC50 was calculated as the […] of the resulting non-linear regression.

Q: For `Cc1nc(Cl)nc(Nc2ncc(C(=O)Nc3c(C)cccc3Cl)s2)n1` [Compound 4], which IC50 is on record?
A: 12.2 µM

Q: With `Cc1nc(Nc2ncc(C(=O)Nc3c(C)cccc3Cl)s2)nc(N2CCN(CCO)CC2)n1` [Compound 5] as the compound, how does the IC50 read?
A: 16 µM

Q: Which IC50 does the source give for `Cc1nc(Nc2ncc(C(=O)Nc3c(C)cccc3Cl)s2)nc(N2CCN(c3ccncc3)CC2)n1` [Compound 6] here?
A: 2.6 µM

Q: For `Cc1nc(Nc2ncc(C(=O)Nc3c(C)cccc3Cl)s2)nc(N2CCN(C)CC2)n1` [Compound 7], which IC50 is on record?
A: 38.7 µM

Q: `Cc1nc(Nc2ncc(C(=O)Nc3c(C)cccc3Cl)s2)nc(N2CCOCC2)n1` [Compound 8] was tested. Which IC50 did it give?
A: 58.1 µM

Q: For `Cc1nc(Cl)nc(Nc2ccc(Oc3ccc(Cl)cc3)cc2)n1` [Compound 9], which IC50 is on record?
A: 19.1 µM

Q: How did the IC50 turn out when `Cc1nc(Nc2ccc(Oc3ccc(Cl)cc3)cc2)nc(N2CCN(CCO)CC2)n1` [Compound 10] was run?
A: 14.1 µM

Q: How did the IC50 turn out when `Cc1nc(Nc2ccc(Oc3ccc(Cl)cc3)cc2)nc(N2CCN(c3ccncc3)CC2)n1` [Compound 11] was run?
A: 1.4 µM

Q: Which IC50 does the source give for `Cc1cccc(Cl)c1NC(=O)c1cnc(Nc2nc(Cl)nc(Nc3cnc(C(=O)Nc4c(C)cccc4Cl)s3)n2)s1` [Compound 12] here?
A: 237 µM

Q: Which IC50 does the source give for `Cc1cccc(Cl)c1NC(=O)c1cnc(Nc2nc(Cl)nc(N3CCN(CCO)CC3)n2)s1` [Compound 13] here?
A: 171 µM

Q: `Cc1cccc(Cl)c1NC(=O)c1cnc(Nc2nc(N3CCN(c4ccncc4)CC3)nc(N3CCN(c4ccncc4)CC3)n2)s1` [Compound 14] was tested. Which IC50 did it give?
A: 131 µM
